Values of other authors as cited in patent US12472264B2, “Cell-penetrating peptides” (Oxford University Innovation Limited, priority 2018, dated 2025).

Test system: exon 51
Settings: background statement on FDA accelerated approval, September 2016

eteplirsen
levels of dystrophin restoration: approximately 1 % of normal dystrophin levels
